# Literature values in paper PMC10817174, “Integrated drug response prediction models pinpoint repurposed drugs with effectiveness against rhabdomyosarcoma” (PLOS ONE, 2024).
# System: GDSC-RD cell line
# Settings: Table S2, published drug response ref Iorio et al. (2016); cited from earlier work
row,Compound,Iorio_RD
1,O=c1[nH]cc(F)c(=O)[nH]1 [5-Fluorouracil],R
2,Cc1ccc(F)c(NC(=O)Nc2ccc(-c3cccc4[nH]nc(N)c34)cc2)c1 [ABT-869],R
3,CC(C)(C)c1cc(NC(=O)Nc2ccc(-c3cn4c(n3)sc3cc(OCCN5CCOCC5)ccc34)cc2)no1 [AC220],R
4,CNCc1ccc(-c2[nH]c3cc(F)cc4c3c2CCNC4=O)cc1 [AG-014699],R
5,O=c1[nH]c2ccccc2n1C1CCN(Cc2ccc(-c3nc4cc5[nH]cnc5cc4nc3-c3ccccc3)cc2)CC1 [AKT-inhibitor-VIII],R
6,Cc1ccc(C(=O)Nc2ccc(CN3CCN(C)CC3)c(C(F)(F)F)c2)cc1C#Cc1cnc2cccnn12 [AP-24534],R
7,CC(C)[C@H](C(=O)Nc1ccc(C(=O)NO)cc1)c1ccccc1 [AR-42],R
8,N#CC(c1ccnc(NCCc2cccnc2)n1)c1nc2ccccc2s1 (stereo not shown) [AS601245],R
9,O=C1NC(=O)/C(=C\c2ccc3nccnc3c2)S1 [AS605240],R

# System: GDSC-SJCRH30 cell line
# Settings: Table S2, published drug response ref Iorio et al. (2016); cited from earlier work
row,Compound,Iorio_SJCRH30
1,O=c1[nH]cc(F)c(=O)[nH]1 [5-Fluorouracil],R
2,C=CCNC1=C2C[C@@H](C)C[C@H](OC)[C@H](O)[C@@H](C)/C=C(\C)[C@H](OC(N)=O)[C@@H](OC)/C=C\C=C(/C)C(=O)NC(=CC1=O)C2=O [17-AAG],R
3,Cc1ccc(F)c(NC(=O)Nc2ccc(-c3cccc4[nH]nc(N)c34)cc2)c1 [ABT-869],R
4,C[C@]1(c2nc3c(C(N)=O)cccc3[nH]2)CCCN1 [ABT-888],R
5,CC(C)(C)c1cc(NC(=O)Nc2ccc(-c3cn4c(n3)sc3cc(OCCN5CCOCC5)ccc34)cc2)no1 [AC220],R
6,CNCc1ccc(-c2[nH]c3cc(F)cc4c3c2CCNC4=O)cc1 [AG-014699],R
7,NC(=O)c1ncn([C@@H]2O[C@H](CO)[C@@H](O)[C@H]2O)c1N [AICAR],R
8,O=c1[nH]c2ccccc2n1C1CCN(Cc2ccc(-c3nc4cc5[nH]cnc5cc4nc3-c3ccccc3)cc2)CC1 [AKT-inhibitor-VIII],R
9,CC1(C)CNc2cc(NC(=O)c3cccnc3NCc3ccncc3)ccc21 [AMG-706],R
10,Cc1ccc(C(=O)Nc2ccc(CN3CCN(C)CC3)c(C(F)(F)F)c2)cc1C#Cc1cnc2cccnn12 [AP-24534],R
11,CC(C)[C@H](C(=O)Nc1ccc(C(=O)NO)cc1)c1ccccc1 [AR-42],R
12,N#CC(c1ccnc(NCCc2cccnc2)n1)c1nc2ccccc2s1 (stereo not shown) [AS601245],R
13,O=C1NC(=O)/C(=C\c2ccc3nccnc3c2)S1 [AS605240],R
14,CC1=C(/C=C/C(C)=C/C=C/C(C)=C/C(=O)O)C(C)(C)CCC1 [ATRA],R
15,NC(=O)Nc1cc(-c2cccc(F)c2)sc1C(=O)N[C@H]1CCCNC1 [AZD7762],S
16,COc1ccc(-c2ccc3c(N4CCOC[C@@H]4C)nc(N4CCOC[C@@H]4C)nc3n2)cc1CO [AZD8055],R
17,CNC(=O)c1ccccc1Sc1ccc2c(/C=C/c3ccccn3)n[nH]c2c1 [Axitinib],R
18,Cc1ccc(-n2nc(C(C)(C)C)cc2NC(=O)Nc2ccc(OCCN3CCOCC3)c3ccccc23)cc1 [BIRB-0796],R
19,O=C(NCCCNc1nc(Nc2cccc(NC(=O)N3CCCC3)c2)ncc1I)c1cccs1 [BX-795],R
20,COc1cc(Nc2c(C#N)cnc3cc(OCCCN4CCN(C)CC4)c(OC)cc23)c(Cl)cc1Cl [Bosutinib],R
21,C[C@]12O[C@H](C[C@]1(O)CO)n1c3ccccc3c3c4c(c5c6ccccc6n2c5c31)CNC4=O [CEP-701],R
22,O=C(NOCC1CC1)c1ccc(F)c(F)c1Nc1ccc(I)cc1Cl [CI-1040],R
23,CC[C@@]1(O)C(=O)OCc2c1cc1n(c2=O)Cc2cc3ccccc3nc2-1 [Camptothecin],R
24,N.N.[Cl][Pt][Cl] [Cisplatin],R
25,Nc1ccn([C@@H]2O[C@H](CO)[C@@H](O)[C@@H]2O)c(=O)n1 [Cytarabine],S
26,CC(=O)O[C@@]12CO[C@@H]1C[C@H](O)[C@@]1(C)C(=O)[C@H](O)C3=C(C)[C@@H](OC(=O)[C@H](O)[C@@H](NC(=O)OC(C)(C)C)c4ccccc4)C[C@@](O)([C@@H](OC(=O)c4ccccc4)[C@H]21)C3(C)C [Docetaxel],R

row,Compound,Iorio_SJCRH30
1,CN(NC(=O)CC(=O)NN(C)C(=S)c1ccccc1)C(=S)c1ccccc1 [Elesclomol],R
2,Cn1cc(/C=C2\C(=O)Nc3cccnc32)c2ccccc21 [GW-441756],S
3,COc1cc2ncnc(Nc3ccc(F)c(Cl)c3)c2cc1OCCCN1CCOCC1 [Gefitinib],R
4,CNC(=O)c1ccc(Nc2cc(Nc3ccccc3S(=O)(=O)C(C)C)c3cc[nH]c3n2)nc1 [HG-5-113-01],R
5,CCOc1nc(NC(=O)Cc2cc(OC)ccc2OC)cc(N)c1C#N [JNK-Inhibitor-VIII],R
6,O=c1cc(-c2cccc3c2Sc2ccccc2S3)oc(N2CCOCC2)c1 [KU-55933],R
7,Nc1cccc2c1CN(C1CCC(=O)NC1=O)C2=O (stereo not shown) [Lenalidomide],R
8,NC1(c2ccc(-c3nc4ccn5c(=O)[nH]nc5c4cc3-c3ccccc3)cc2)CCC1 [MK-2206],R
9,CN(Cc1cnc2nc(N)nc(N)c2n1)c1ccc(C(=O)N[C@@H](CCC(=O)O)C(=O)O)cc1 [Methotrexate],R
10,O=c1cc(N2CCOCC2)oc2c(-c3cccc4c3sc3ccccc34)cccc12 [NU-7441],R
11,Cn1c(=O)n(-c2ccc(C(C)(C)C#N)cc2)c2c3cc(-c4cnc5ccccc5c4)ccc3ncc21 [NVP-BEZ235],R
12,Cc1cn(-c2cc(NC(=O)c3ccc(C)c(Nc4nccc(-c5cccnc5)n4)c3)cc(C(F)(F)F)c2)cn1 [Nilotinib],R
13,COc1ccc(C2=N[C@@H](c3ccc(Cl)cc3)[C@@H](c3ccc(Cl)cc3)N2C(=O)N2CCNC(=O)C2)c(OC(C)C)c1 [Nutlin-3a],R
14,CCN(CC)CCCCNc1ncc2cc(-c3cc(OC)cc(OC)c3)c(NC(=O)NC(C)(C)C)nc2n1 [PD-173074],R
15,O=C(NOC[C@H](O)CO)c1ccc(F)c(F)c1Nc1ccc(I)cc1F [PD-0325901],R
16,CC(=O)c1c(C)c2cnc(Nc3ccc(N4CCNCC4)cn3)nc2n(C2CCCC2)c1=O [PD-0332991],R
17,O=C1NC(=NCc2cccs2)S/C1=C\c1ccc2ncccc2c1 [RO-3306],R
18,Cn1cc(C2=C(c3ccc(Cl)cc3Cl)C(=O)NC2=O)c2ccccc21 [SB-216763],R
19,CC(=O)O[C@@H]1[C@@H](OC(C)=O)[C@@H](O)[C@H](Oc2c(-c3ccc(O)cc3)oc3cc(O)cc(O)c3c2=O)O[C@H]1C [SL-0101-1],R
20,CO[C@H]1C[C@@H]2CC[C@@H](C)[C@@](O)(O2)C(=O)C(=O)N2CCCC[C@H]2C(=O)O[C@H]([C@H](C)C[C@@H]2CC[C@@H](OC(=O)C(C)(CO)CO)[C@H](OC)C2)CC(=O)[C@H](C)/C=C(\C)[C@@H](O)[C@@H](OC)C(=O)[C@H](C)C[C@H](C)/C=C/C=C/C=C/1C [Temsirolimus],R
21,NC(=O)c1ccc(N(C(N)=O)c2c(F)cccc2F)nc1-c1ccc(F)cc1F [VX-702],R
22,CC[C@]1(O)C[C@@H]2CN(CCc3c([nH]c4ccccc34)[C@@](C(=O)OC)(c3cc4c(cc3OC)N(C)[C@H]3[C@@](O)(C(=O)OC)[C@H](OC(C)=O)[C@]5(CC)C=CCN6CC[C@]43[C@@H]65)C2)C1 [Vinblastine],R
23,CS(=O)(=O)c1ccc(C(=O)Nc2ccc(Cl)c(-c3ccccn3)c2)c(Cl)c1 [Vismodegib],R
24,CCOc1cc(N2CCC(O)CC2)ccc1Nc1ncc2c(n1)N(C)c1ccccc1C(=O)N2C [XMD8-92],R
25,CN(C)C/C=C/C(=O)Nc1ccc(C(=O)Nc2cccc(Nc3nccc(-c4cccnc4)n3)c2)cc1 [ZG-10],R
26,COc1cc2c(Nc3ccc(NC(=O)c4ccccc4)cc3)ncnc2cc1OCCCN1CCOCC1 [ZM-447439],R
